≈ marks a conversion by molar mass, not a printed value. *1 amine or outer side, *2 acyl side, *3 side chain or, on linkers, in order; H or OH if unused. Where a SMILES comes first, the peptide text is derived from it. The star is where a group is joined. ξ: configuration not given here. DAMPA = CN(Cc1cnc2nc(N)nc(N)c2n1)c1ccc(C(=O)*)cc1; ξγGlu = O=C(O)C(CCC(=O)[*:2])N[*:1]
How the values were obtained:
[1] = test system: MDA-MB-231; assay: Cytotoxicity against human MDA-MB-231 cells incubated for 30 mins by CellTiter-Glo luminescent Cell viability assay; format: functional, cell-based; conditions: MDA-MB-231, 0.5 h
[2] = test system: MCF7; assay: Antitumor activity against human MCF7 cells xenografted in BALB/c nude mouse assessed as tumor growth inhibition at 200 mg/kg, ip administered every other day for 2 weeks relative to control; format: functional; conditions: 336 h, read-out: TGI
[3] = test system: MCF7; assay: Cytotoxicity against human MCF7 cells incubated for 72 hrs by SRB assay; format: functional, cell-based; conditions: MCF7, 72 h
[4] = test system: MCF7; assay: Antiproliferative activity against human MCF7 assessed as reduction in cell number at 10 uM measured after 6 days in presence of 100 uM AICAR by sulforhodamine B assay relative to control; format: functional; parameters: scale not given: the % may be the effect or the level left; conditions: time 6 day
[5] = test system: MDA-MB-231; assay: Synergistic antiproliferative activity against human MDA-MB-231 cells assessed as cell survival rate at 0.1 uM incubated for 72 hrs in presence of alpha-tocopherol measured every 24 hrs by MTT assay relative to control; format: functional; conditions: read-out: Survival
[6] = test system: MDA-MB-231; assay: Synergistic antiproliferative activity against human MDA-MB-231 cells assessed as cell survival rate at 10 uM incubated for 72 hrs in presence of alpha-tocopherol measured every 24 hrs by MTT assay relative to control; format: functional; conditions: read-out: Survival
[7] = test system: MCF7; assay: Antitumor activity against human MCF7 cells xenografted in BALB/c nude mouse assessed as tumor growth inhibition at 50 mg/kg, ip administered once per week for 2 weeks relative to control; format: functional; conditions: 336 h, read-out: TGI
[8] = test system: MCF7; assay: Synergistic antitumor activity against human MCF7 cells xenografted in BALB/c nude mouse assessed as tumor growth inhibition at 50 mg/kg, ip administered once per week for 2 weeks in presence of AICA riboside relative to control; format: functional; conditions: 336 h, read-out: TGI
[9] = test system: MCF7; assay: Antineoplastic activity against human MCF7 cells incubated for 72 hrs by prestoblue reduction assay; format: functional, cell-based; conditions: MCF7, 72 h
[10] = Drug metabolism in human assessed as carboxypeptidase-G2 (unknown origin)- mediated drug conversion to DAMPA and glutamate; format: ADME
[11] = Drug excretion in patient bile at 10 mg/m2, po by HPLC method; format: ADME, organism-based; conditions: human, read-out: Drug excretion
[12] = Blood brain barrier permeability in iv dosed human; format: ADME, organism-based
[13] = target: Albumin (Homo sapiens, UniProt P02768); assay: Binding affinity to human serum albumin by Scatchard plot; format: ADME, cell-free
[14] = Half life in plasma (unknown origin); format: ADME, cell-free
[15] = Oral bioavailability in pediatric patient at > 40 mg/m2; format: ADME, organism-based; conditions: human, in vivo
[16] = Oral bioavailability in pediatric patient at <= 40 mg/m2; format: ADME, organism-based; conditions: human, in vivo
[17] = Aqueous solubility of compound; format: physicochemical; conditions: aqueous medium

Sequence of Albumin (P02768 whole entry): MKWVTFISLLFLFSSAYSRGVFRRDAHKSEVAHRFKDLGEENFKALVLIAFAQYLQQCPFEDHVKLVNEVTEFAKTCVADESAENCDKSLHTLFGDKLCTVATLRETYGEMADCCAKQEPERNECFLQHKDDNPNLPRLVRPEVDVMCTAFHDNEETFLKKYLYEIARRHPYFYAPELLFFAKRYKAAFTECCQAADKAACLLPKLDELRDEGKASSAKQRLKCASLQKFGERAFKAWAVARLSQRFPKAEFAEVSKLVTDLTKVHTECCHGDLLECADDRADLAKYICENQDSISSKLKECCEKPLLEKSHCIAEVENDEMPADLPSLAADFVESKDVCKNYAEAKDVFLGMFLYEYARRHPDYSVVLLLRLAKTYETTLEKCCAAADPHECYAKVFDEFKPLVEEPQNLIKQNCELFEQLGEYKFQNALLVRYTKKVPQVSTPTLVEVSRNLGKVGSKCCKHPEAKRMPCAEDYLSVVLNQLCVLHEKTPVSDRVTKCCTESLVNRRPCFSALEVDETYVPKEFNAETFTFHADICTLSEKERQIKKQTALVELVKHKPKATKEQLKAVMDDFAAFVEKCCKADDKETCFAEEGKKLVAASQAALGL

`CC[C@H](C)[C@H](NC(=O)[C@H](C)NC(=O)[C@@H](NC(=O)[C@H](Cc1ccc(O)cc1)NC(=O)CNC(=O)CCC(NC(=O)c1ccc(N(C)Cc2cnc3nc(N)nc(N)c3n2)cc1)C(=O)O)[C@@H](C)O)C(=O)N[C@@H](C)C(=O)N[C@@H](Cc1c[nH]c2ccccc12)C(=O)N[C@H](C(=O)N[C@@H](CCCCN)C(=O)N[C@@H](C)C(=O)N[C@@H](Cc1ccccc1)C(=O)N[C@H](C(=O)N[C@@H](CCCNC(=N)N)C(=O)N[C@@H](CCCCN)C(=O)N[C@@H](CC(C)C)C(=O)N[C@@H](CCCNC(=N)N)C(=O)N[C@@H](CCCCN)C(N)=O)[C@@H](C)CC)C(C)C` (stereo partly drawn) ({DAMPA-ξγGlu}-GYTAIAWVKAFIRKLRK-NH2) showed an EC50 [1] of 3800 nM.

In the case of `NC(=O)c1ncn([C@@H]2O[C@H](CO)[C@@H](O)[C@H]2O)c1N` [ACADESINE], the inhibition in vivo at 200 mg/kg [2] is reported as 42.2%.

In the case of `COc1cccc2c1C(=O)c1c(O)c3c(c(O)c1C2=O)C[C@@](O)(C(=O)CO)C[C@@H]3O[C@H]1C[C@H](N)[C@@H](O)[C@H](C)O1` [EPIRUBICIN], the IC50 [3] is reported as 550 nM.

In the case of `CN(Cc1cnc2nc(N)nc(N)c2n1)c1ccc(C(=O)N[C@@H](CCC(=O)O)C(=O)O)cc1` [METHOTREXATE], the Activity [4] is reported as 50%, the IC50 [3] is reported as > 22000 nM and the viability at 0.1 µM [5] is reported as > 60%. For the same compound, the viability at 10 µM [6] was 35%, the inhibition in vivo at 50 mg/kg [7] was 55% and the inhibition in vivo at 50 mg/kg [8] was 79.9%. For the same compound, the IC50 [9] was 15 nM, the Drug metabolism [10] was > 98% and the dose excreted [11] was 8.7%. It also gave a pBBB [12] of 1.7%, a K [13] of 820 M⁻¹ and a half-life [14] of 2 h. The bioavailability [15] was 18%, the bioavailability [16] was 42% and the solubility [17] was 10 µg/mL (≈ 22 µM).

— ChEMBL document CHEMBL4673179 (RSC Med Chem, 2020)
